Measurements taken from patent US12522597B2, “Methods and compositions for modulating splicing” (Skyhawk Therapeutics, Inc., priority 2019, dated 2026).
Read-outs that look alike come from different tables or passages of the source.

Columns and labels:
[1] = tested on: Huntingtin (HTT) transcripts; assay: Quantitative splicing assay (HTT), qPCR; type: cell-based; conditions: Homo sapiens, GM04724 (CAG 70/20) Huntington's disease patient lymphoblasts, 24 h
In short: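 Read-out is TaqMan qPCR on cDNA, quantifying inclusion of a cryptic exon within HTT intron 49. Cells were Huntington's patient lymphoblasts GM04724 (CAG 70/20), treated for 24 h at 0.15 nM–2.5 uM compound in 0.1% DMSO.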

mHTT protein = mHTT protein assay (2B7-MW1, Mesoscale Discovery); type: cell-based, human; conditions: GM04724 (CAG 70/20) Huntington's disease patient lymphoblast cells, 48 hours, 2B7-MW1 MSD; read-out: HTT Potency - Protein EC50 mHTT (average)
In short: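 mHTT levels were read with the 2B7-MW1 antibody pair (N17 and polyQ epitopes) on MSD after 48 h dosing, 10 μM–0.6 nM. Cells were GM04724 HD lymphoblasts (CAG 70/20). A replica plate was read by CTG for cell viability.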

[2] = tested on: MDR1-MDCK cell monolayers; assay: MDCK-MDR1 permeability assay (BBB penetration potential); type: in vitro ADME; conditions: dog, MDCK-MDR1, 120 min, 5 μM, pH 7.4
Protocol: (§1) Each determination is performed in duplicate. […] Analytical conditions are outlined below.

MDR1 = assay: as above; type: in vitro ADME; conditions: dog; for efflux ratio at 120 min, 5 μM: MDCK-MDR1, pH 7.4, MDCK-MDR1: Efflux; for Papp A→B at 120 min, 5 μM: MDCK-MDR1, pH 7.4, MDCK-MDR1: Papp A-B; for Papp B→A at 120 min, 5 μM: MDCK-MDR1, pH 7.4, MDCK-MDR1: Papp B-A
Protocol: as §1

[3] = qPCR HTTex49_50, read-out: HTT Potency - Splicing: E49-50 EC50 (average)
[4] = qPCR cryptic exon 49b inclusion, read-out: HTT Potency - Splicing: E49b EC50 (average)

| Compound | EC50 [1, 3] [nM] | EC50 [1, 4] [nM] | EC50 (mHTT protein) [nM] | MDCK-MDR1: % Recov A-B [2] [%] | MDCK-MDR1: % Recov B-A [2] [%] | efflux ratio at 120 min, 5 μM (MDR1) | Papp A→B at 120 min, 5 μM (MDR1) [×10⁻⁶ cm/s] | Papp B→A at 120 min, 5 μM (MDR1) [×10⁻⁶ cm/s] |
| --- | --- | --- | --- | --- | --- | --- | --- | --- |
| Oc1cc(-c2cn[nH]c2)ccc1-c1ccc(O[C@H]2C[C@@H]3CC[C@@H](N3)[C@H]2F)nn1 (single isomer, unassigned) [42-ENT1] | 0.01 to 15 | 0.01 to 15 | 0.01 to 15 | 75 | 84 | 12 | 3.39 | 42.4 |
| Oc1cc(-n2ccc(F)n2)ccc1-c1ccc(O[C@H]2C[C@@H]3CCC[C@@H](N3)[C@H]2F)nn1 (single isomer, unassigned) [115-ENT2] | 16 to 50 | 16 to 50 | 0.01 to 15 | 43 | 67 | 2 | 6.9 | 12 |
| Cn1cc(-c2ccc(-c3ccc(O[C@H]4C[C@H]5CCC[C@H](N5)[C@@H]4F)nn3)c(O)c2)cn1 (single isomer, unassigned) [121-ENT1] | 501 to 10000 | 501 to 10000 | 501 to 10000 | 66 | 73 | 5 | 11 | 50.3 |
| Oc1cc(-c2cn[nH]c2)ccc1-c1ccc(O[C@H]2C[C@@H]3CCC[C@@H](N3)[C@@H]2F)nn1 (single isomer, unassigned) [41-ENT1] | 0.01 to 15 | 0.01 to 15 | 0.01 to 15 | 71 | 86 | 8 | 4.33 | 34.7 |
| Oc1cc(-c2cn[nH]c2)ccc1-c1ccc(O[C@H]2C[C@@H]3CC(F)(F)[C@H](C2)N3)nn1 (single isomer, unassigned) [46-ENT1] | 501 to 10000 | 501 to 10000 | 501 to 10000 | 70 | 88 | 3 | 18.3 | 47 |
| Cc1ncc(-c2ccc(-c3ccc(O[C@@H]4C[C@H]5CCC[C@H](N5)[C@@H]4F)nn3)c(O)c2)s1 (single isomer, unassigned) [96-ENT1] | 16 to 50 | 16 to 50 | 16 to 50 | 39 | 72 | 2 | 7.37 | 15.2 |
| Cc1cc(-c2ccc(-c3ccc(O[C@@H]4C[C@H]5CCC[C@H](N5)[C@@H]4F)nn3)c(O)c2)ccn1 (single isomer, unassigned) [88-ENT1] | 16 to 50 | 16 to 50 | 16 to 50 | 51 | 64 | 3 | 7.03 | 22.1 |
| Cn1cc(-c2ccc(-c3ccc(O[C@H]4C[C@@H]5CCC[C@@H](N5)[C@H]4F)nn3)c(O)c2F)cn1 (single isomer, unassigned) [119-ENT2] | 16 to 50 | 16 to 50 | 51 to 100 | 59 | 64 | 3 | 9.17 | 29.4 |
| Cn1ccc2cc(O)c(-c3ccc(O[C@@H]4C[C@H]5CC[C@H](N5)[C@@H]4F)nn3)cc2c1=O (single isomer, unassigned) [129-ENT2] | 51 to 100 | 16 to 50 | 0.01 to 15 | 72 | 79 | 9 | 4.94 | 45.7 |
| Cn1cc(-c2cc(O)c(-c3ccc(O[C@H]4C[C@@H]5CCC[C@@H](N5)[C@H]4F)nn3)cc2Cl)cn1 (single isomer, unassigned) [120-ENT2] | 51 to 100 | 16 to 50 | 51 to 100 | 28 | 71 | 7 | 4.47 | 30.2 |
| Cn1cc(-c2ccc(-c3ccc(O[C@@H]4C[C@H]5CCC[C@H](N5)[C@@H]4F)nn3)c(O)c2F)cn1 (single isomer, unassigned) [119-ENT1] | 16 to 50 | 16 to 50 | 16 to 50 | 56 | 80 | 10 | 3.4 | 33 |
| Cn1cc(-c2cc(O)c(-c3ccc(O[C@H]4C[C@@H]5CCC[C@@H](N5)[C@H]4F)nn3)cn2)cn1 (single isomer, unassigned) [64-ENT2] | 501 to 10000 | 501 to 10000 | 501 to 10000 | 92 | 97 | 50 | 0.21 | 10.7 |
| Cn1cc(-c2cc(O)c(-c3ccc(O[C@@H]4C[C@H]5CCC[C@H](N5)[C@@H]4F)nn3)cn2)cn1 (single isomer, unassigned) [64-ENT1] | 501 to 10000 | 501 to 10000 | 501 to 10000 | 99 | 101 | 68 | 0.18 | 12.4 |
| COc1cc(-c2ccc(-c3ccc(O[C@@H]4C[C@H]5CCC[C@H](N5)[C@@H]4F)nn3)c(O)c2)cnn1 (single isomer, unassigned) [76-ENT1] | 0.01 to 15 | 0.01 to 15 | 16 to 50 | 64 | 70 | 8 | 3.83 | 32.3 |
| Oc1cc(-c2nnco2)ccc1-c1ccc(O[C@H]2C[C@@H]3CC[C@@H](N3)[C@H]2F)nn1 (single isomer, unassigned) [140-ENT1] | 101 to 500 | 101 to 500 | 101 to 500 | 92 | 95 | 2 | 18.1 | 43.3 |
| Cn1cc(-c2ccc(-c3ccc(O[C@H]4C[C@@H]5CCC[C@@H](N5)[C@H]4F)nn3)c(O)c2)oc1=O (single isomer, unassigned) [97-ENT2] | 16 to 50 | 16 to 50 | 0.01 to 15 | 74 | 82 | 10 | 3.11 | 32 |
| Cn1ccc(-c2cc(O)c(-c3ccc(O[C@H]4C[C@@H]5CCC[C@@H](N5)[C@H]4F)nn3)cc2F)cc1=O (single isomer, unassigned) [58-ENT2] | 16 to 50 | 16 to 50 | 0.01 to 15 | 83 | 90 | 47 | 1.17 | 55.1 |
| Oc1cc(-c2nncs2)ccc1-c1ccc(O[C@H]2C[C@@H]3CCC[C@@H](N3)[C@H]2F)nn1 (single isomer, unassigned) [116-ENT2] | 101 to 500 | 101 to 500 | 16 to 50 | 90 | 95 | 5 | 11.3 | 61.4 |
